Among the data in PubChem BioAssay (NCI) are TGI and GI50 values, retold here.

Among the test systems are MDA-MB-435; HS 578T breast; SK-MEL-28 melanoma; UACC-62 melanoma; RXF 393 renal; CAKI-1 renal; SF-268 CNS.
Assay in all cases: NCI anticancer screen, dose series, 48 h

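Each compound was tested at five concentrations against cells in 96-well plates for 48 hours. GI50 is the concentration that inhibits growth by half. The concentration for full growth arrest is given as TGI.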

For `O=c1[nH]cnc2c(C3OC(CO)C(O)C3O)[nH]nc12` (centres undefined), the TGI in the test on MDA-MB-435, in the test on HS 578T breast, in the test on SK-MEL-28 melanoma, in the test on UACC-62 melanoma, in the test with RXF 393 renal and with CAKI-1 renal was > 100 µM each time.

With `O=C1C=C(Nc2ccccc2)c2ncccc2C1=O`, the GI50 was 0.178 µM in the test on MDA-MB-435; 2.33 µM in the test on HS 578T breast; 0.446 µM in the test on SF-268 CNS; 1.7 µM with SK-MEL-28 melanoma; 0.224 µM in the test on UACC-62 melanoma; 1.4 µM with RXF 393 renal. Besides, the GI50 in the test with CAKI-1 renal was 1.39 µM. The TGI with MDA-MB-435 came to 0.323 µM; in the test on HS 578T breast, 6.58 µM; with SF-268 CNS, 1.8 µM; in the test with SK-MEL-28 melanoma, 3.24 µM; in the test with UACC-62 melanoma it was 0.521 µM; in the test with RXF 393 renal, 2.72 µM. Besides, the TGI in the test on CAKI-1 renal was 2.7 µM.

Consider `O=C(O)C1C2C=CC(O2)C1C(=O)Nc1ccccc1` (centres undefined), for which the TGI in the test on MDA-MB-435, in the test on HS 578T breast, in the test on SF-268 CNS, in the test with SK-MEL-28 melanoma, with UACC-62 melanoma and in the test on RXF 393 renal was > 100 µM throughout. Besides, the TGI with CAKI-1 renal was > 100 µM.

Consider `C#C[C@@]1(O)[C@@H](CO)O[C@@H](n2cc(Cl)c3c(N)ncnc32)[C@@H]1O`, for which the GI50 in the test with MDA-MB-435 was 0.166 µM; in the test with HS 578T breast, 1.07 µM; in the test with SF-268 CNS, 0.333 µM; in the test with SK-MEL-28 melanoma it was 0.575 µM; in the test with RXF 393 renal, 0.299 µM. For the same compound, the TGI in the test with MDA-MB-435 is 2.4 µM; in the test with HS 578T breast it was > 26.5 µM; in the test on SF-268 CNS it was 21.2 µM; in the test on SK-MEL-28 melanoma, 71.5 µM; in the test on RXF 393 renal, 0.813 µM.

Consider `CCCCCCCCCCCCCCCCC1=CC(=O)C=C(OC)C1=O`, for which the TGI in the test on MDA-MB-435, with HS 578T breast, in the test on SF-268 CNS, in the test on SK-MEL-28 melanoma, in the test on UACC-62 melanoma and with RXF 393 renal was > 100 µM in each case. Further, the TGI in the test on CAKI-1 renal is > 100 µM.

As for `CC(=O)O[C@H](C[C@H](C(C)C)N(C)C(=O)[C@@H](NC(=O)[C@H]1CCCCN1C)C(C)C)c1nc(C(=O)N[C@@H](Cc2ccccc2)C[C@H](C)C(=O)O)c(C)s1`, the GI50 in the test with HS 578T breast, in the test on SF-268 CNS, in the test on SK-MEL-28 melanoma and with UACC-62 melanoma was < 0.0025 µM in each case. Also, the TGI with HS 578T breast, in the test with SF-268 CNS, with SK-MEL-28 melanoma and with UACC-62 melanoma was > 25 µM each time.

For `O=C(O)C(=O)Cc1ccc2c(c1)OCO2`, the TGI with MDA-MB-435, with SK-MEL-28 melanoma, in the test on UACC-62 melanoma, in the test with RXF 393 renal and in the test on CAKI-1 renal was > 100 µM throughout.

With `COc1cc2c(c(OC)c1OC)-c1ccc([O-])c(=O)cc1[C@@H](NC(C)=O)CC2.COc1cc2c(c(OC)c1OC)-c1ccc([O-])c(=O)cc1[C@@H](NC(C)=O)CC2.[Cu+2]`, the GI50 with HS 578T breast was 1.94 µM; in the test with SF-268 CNS, 3.89 µM; in the test with SK-MEL-28 melanoma, 7.82 µM; in the test on UACC-62 melanoma, 1.86 µM; in the test with RXF 393 renal it was 3.87 µM; in the test with CAKI-1 renal, 4.96 µM. Besides, the TGI was > 100 µM in the test with HS 578T breast; 22.7 µM in the test with SF-268 CNS; > 100 µM in the test on SK-MEL-28 melanoma; 11.4 µM with UACC-62 melanoma; > 100 µM with RXF 393 renal; 63.1 µM in the test with CAKI-1 renal.

Take `Cc1ccc(-c2csc(N(C(=O)N3CCN(c4cc5c(cc4F)c(=O)c(C(=O)O)cn5C4CC4)CC3)c3ccccc3)n2)cc1`: the GI50 with HS 578T breast is 0.428 µM; with SF-268 CNS, 0.432 µM; in the test on SK-MEL-28 melanoma it was 0.582 µM; with RXF 393 renal, 0.368 µM; in the test with CAKI-1 renal, 0.373 µM. The TGI in the test with HS 578T breast is > 100 µM; in the test with SF-268 CNS it was > 100 µM; with SK-MEL-28 melanoma, > 100 µM; in the test on RXF 393 renal, 20.5 µM; in the test on CAKI-1 renal, > 100 µM.

Take `CC[C@H](C)c1occ2c(O)c(C(=O)O)c(=O)cc-2c1C`: the TGI is 58 µM in the test on MDA-MB-435; > 100 µM with HS 578T breast; > 100 µM in the test on SF-268 CNS; 37.4 µM with UACC-62 melanoma; 33.5 µM in the test with RXF 393 renal; > 100 µM in the test with CAKI-1 renal.

Turning to `COc1cc2[nH]c(C(=O)c3cc(OC)c(OC)c(OC)c3)c(N)c2cc1C#CCO`, the GI50 is 0.345 µM with HS 578T breast; 0.957 µM in the test on SF-268 CNS; 0.896 µM in the test on SK-MEL-28 melanoma; 7.56 µM in the test on UACC-62 melanoma; 0.537 µM in the test with CAKI-1 renal. The TGI with HS 578T breast was 72.3 µM; in the test with SF-268 CNS, 73.4 µM; in the test with SK-MEL-28 melanoma, > 100 µM; in the test with UACC-62 melanoma it was > 100 µM; in the test on CAKI-1 renal it was > 100 µM.

In the case of `C=C1C(=O)O[C@@H]2[C@H]1CC[C@H](C)[C@]1(O)CCC(=O)[C@@]21C`, the TGI in the test on MDA-MB-435, with HS 578T breast, with SF-268 CNS, in the test with SK-MEL-28 melanoma, in the test with UACC-62 melanoma and in the test with RXF 393 renal was > 10 µM throughout.

Regarding `COc1ccc(C(=S)c2cc(OC)c(OC)c(OC)c2)cc1OC(=O)CCl`, the GI50 in the test with MDA-MB-435 was < 0.01 µM; in the test with HS 578T breast it was 0.023 µM; in the test with SF-268 CNS it was 0.054 µM; with UACC-62 melanoma, 0.0391 µM; with RXF 393 renal it was 0.022 µM; in the test with CAKI-1 renal it was 0.0449 µM. The TGI in the test on MDA-MB-435 is < 0.0108 µM; in the test with HS 578T breast, > 100 µM; with SF-268 CNS, > 100 µM; in the test with UACC-62 melanoma, > 100 µM; with RXF 393 renal, > 77.3 µM; in the test with CAKI-1 renal, 52.1 µM.

With `CC(C)(Cl)CCC1=C(Cl)C(=O)c2ccccc2C1=O`, the GI50 is 2.15 µM in the test with MDA-MB-435; 3.26 µM in the test on HS 578T breast; 3.07 µM in the test with SF-268 CNS; 2.4 µM in the test with SK-MEL-28 melanoma; 1.87 µM in the test with CAKI-1 renal. For the same compound, the TGI in the test on MDA-MB-435 was found to be 4.62 µM; in the test on HS 578T breast, 45.8 µM; in the test with SF-268 CNS, 11.3 µM; in the test on SK-MEL-28 melanoma it was 5.26 µM; in the test with CAKI-1 renal, 3.46 µM.

On to `CC(C)C1C(=O)N2CCCC2C2(O)OC(NC(=O)C3C=C4c5cccc6[nH]cc(c56)CC4N(C)C3)(C(C)C)C(=O)N12` (centres undefined), for which the TGI with MDA-MB-435 is > 100 µM; in the test on HS 578T breast it was > 100 µM; with SF-268 CNS it was > 100 µM; in the test with SK-MEL-28 melanoma, > 100 µM; in the test with UACC-62 melanoma, 55.7 µM; in the test on CAKI-1 renal, 37.9 µM.
